For assay [1], the system named is leukemia cancer K562 cells. The assay can be described thus: Annexin V-FITC/propidium iodide apoptosis detection, K562. Format: cell-based, human. Particulars: for Late apoptosis: untreated control 0.04%; for Early apoptosis: untreated control 0.37%; for Necrosis: untreated control 1.27%; for Total cell death: untreated control 1.68%. As to the method: (§1) For cell cycle analysis, a propidium iodide flow cytometry kit (ab139418, Abcam, Cambridge, UK) was used. For apoptosis, we used an annexin V apoptosis kit, which is composed of annexin V-FITC (fluorescein isothiocyanate), 1X binding buffer, and propidium iodide. Detection was conducted by measuring DNA content using a flow cytometer.

The test system of assay [2] is non-small-cell lung cancer A549 cell line. Put plainly: cells. The settings on record: Homo sapiens, A549, 48 h, read-out: Cytotoxicity IC50 ± SD, Non-Small-Cell Lung Cancer A549. On the procedure: (§2) Cell lines were obtained from the American Type Culture Collection (ATCC). Cells were cultured using Dulbecco’s Modified Eagle’s Medium (DMEM) (Invitrogen/Life Technologies, Waltham, MA, USA) supplemented with 10% fetal bovine serum (FBS, Hyclone, Logan, UT, USA), 10 µg/mL of insulin (Sigma Aldrich, St. Louis, MO, USA) and 1% mixture of penicillin and streptomycin. After incubation for 48 h with the isolated compounds, the viability of cells was measured using an MTT assay to determine the toxic concentration for each compound using the microplate reader according to the published procedures.

The subject of assay [3] is leukemia cancer K562 cells. Put plainly: Flow cytometry of DNA content, cell cycle distribution, K562. Type of assay: cell-based, human. Particulars: for %Pre-G1 (sub-G1) cells, cell cycle distribution: untreated control 1.68%; for %G2/M cells, cell cycle distribution: untreated control 12.59%; for %S cells, cell cycle distribution: untreated control 42.57%; for %G0-G1 cells, cell cycle distribution: untreated control 44.84%. On the procedure:
as §1
For orientation: In flow cytometry, cells or beads pass a laser one at a time.

The subject of a further assay is leukemia K562 cell line. Put plainly: MTT cytotoxicity assay, leukemia K562. Particulars: Homo sapiens, K562, 48 h, read-out: Cytotoxicity IC50 ± SD, Leukemia Cancer Cell K562. As to the method:
as §2

The next assay deals with normal lung cell WI38. The assay can be described thus: MTT cytotoxicity assay, normal lung cell WI38. Type of assay: cell-based. Particulars: for IC50: Homo sapiens, read-out: Normal Lung Cell Line WI38 IC50 ± SD. As to the method:
(§3) The selectivity index identifies the selectivity of the tested compounds toward the cancer cell line and is calculated by dividing the IC50 against the normal cell line by the IC50 against the cancer cells.

The subject of assay [4] is normal blood cell PCS-800-016. Put plainly: MTT cytotoxicity assay, normal blood cell PCS-800-016. Format: cell-based. Particulars: for IC50: read-out: Normal Blood Cell PCS-800-016 IC50 ± SD. On the procedure: as §3
For orientation: Formazan colour is commonly taken as a measure of viable cells.

Assay [5] relates to non-small-cell lung cancer A549 cells. Put plainly: Annexin V-FITC/propidium iodide apoptosis detection, A549. Type of assay: cell-based. As to the method:
(§4) Furthermore, compound 1 induced early and late apoptosis and necrosis (5.09%, 10.38%, and 13.14%, respectively) compared to the untreated cells (0.29%, 0.18%, and 0.79, respectively).
as §1

Assay [6] has the same test system. Put plainly: Flow cytometry of DNA content, cell cycle distribution, A549. Format: cell-based. On the procedure: as §4, §1

Where a name gives a salt, the structure may show the parent alone. Read-outs that look alike come from different tables or passages of the source.

In general, IC50 refers to the concentration that inhibits the measured activity by half. In assay [1], `O=C(O)C1CCCNC1` [Compound 3, D-piperidine-3-carboxylic acid] gave a Late apoptosis of 30.35%, an Early apoptosis of 2.33%, a Necrosis of 10.54% and a Total cell death of 43.22%. Besides, in assay [2], the IC50 came to 7.33 ± 0.45 µM. Further, in assay [3], the “Phase of cell cycle arrest” value is “S phase”; the “%Pre-G1 (sub-G1) cells, cell cycle distribution” value (from here on “%Pre-G1 (sub-G1) cells”) was 43.22%; the “%G2/M cells, cell cycle distribution” value is recorded as 7.48%; the “%S cells, cell cycle distribution” value was 57.23%. Besides, the “%G0-G1 cells, cell cycle distribution” value in assay [3] is recorded as 35.29%. Also, the IC50 in the assay with leukemia K562 cell line is 3.33 ± 0.24 µM. The half-inhibitory concentration (IC50) in the assay with normal lung cell WI38 (WI-38, 48 h) worked out at 26.6 ± 1.33 µM. Further, the IC50 in assay [4] (48 h) was determined as 37.9 ± 1.89 µM.

For `C[N+]1([O-])CCC(O)CC1` (stereo not drawn) [Compound 2, 4-Hydroxy-1-methylpiperidine 1-oxide], the IC50 (in assay [2]; in the assay on leukemia K562 cell line) was greater than 100 µM throughout.

For the molecule `CN[C@@H]1C[C@H]2O[C@@](C)([C@@H]1OC)n1c3ccccc3c3c4c(c5c6ccccc6n2c5c31)C(=O)NC4` [Staurosporine, reference compound], the IC50 in the assay on leukemia K562 cell line came to 5.07 ± 0.36 µM.

Take `COc1cccc2c1C(=O)c1c(O)c3c(c(O)c1C2=O)C[C@@](O)(C(=O)CO)C[C@@H]3O[C@H]1C[C@H](N)[C@H](O)[C@H](C)O1` [Doxorubicin, reference compound]: the IC50 in assay [2] came to 5.05 ± 0.13 µM; in the assay with leukemia K562 cell line it was 6.94 ± 0.21 µM.

In assay [1], `O=C(O)c1cccnc1` [Compound 5, Pyridine-3-carboxylic acid] yielded a Late apoptosis of 11.74%, an Early apoptosis of 2.94%, a Necrosis of 17.06% and a Total cell death of 31.74%. The IC50 in assay [2] is 3.29 ± 0.2 µM. In addition, in assay [3], the “Phase of cell cycle arrest” value was “S phase”; the “%Pre-G1 (sub-G1) cells” value was determined as 31.74%; the “%G2/M cells, cell cycle distribution” value is given as 10.68%; the “%S cells, cell cycle distribution” value came out at 52.91%. Besides, the “%G0-G1 cells, cell cycle distribution” value in assay [3] is recorded as 36.41%. Besides, the IC50 with leukemia K562 cell line was found to be 2.15 ± 0.15 µM. Moreover, the IC50 with normal lung cell WI38 (WI-38, MTT, 48 h incubation) was found to be 13.9 ± 0.69 µM. In assay [4] (MTT, 48 h incubation), the IC50 was determined as 20.2 ± 1.01 µM.

For `CN1CCC(O)CC1` [Compound 1, 1-Methylpiperidin-4-ol], the IC50 in assay [2] came out at 3.08 ± 0.19 µM; in the assay on leukemia K562 cell line it was 1.56 ± 0.11 µM; in the assay on normal lung cell WI38 (WI-38, MTT, 48 h incubation), 18.3 ± 0.91 µM; in assay [4] (MTT, 48 h incubation) it was 9.87 ± 0.49 µM. Further, the “Fold increase of early apoptosis than control” value in assay [5] (A549, versus untreated cells) is reported as 17.55 fold. Further, the “Fold increase of late apoptosis than control” value in assay [5] (A549, versus untreated cells) stood at 57.67 fold. Further, in assay [5] (A549, versus untreated cells), the “Fold increase of necrosis than control” value came to 16.63 fold. In addition, the “Fold increase of total cell death than control” value in assay [5] (A549, versus untreated cells) is reported as 22.71 fold. Further, the Late apoptosis in assay [5] (A549, untreated control 0.18%) was 10.38%. In assay [5] (A549, untreated control 0.29%), this molecule showed an Early apoptosis of 5.09%. The molecule further registered a Necrosis in assay [5] (A549, untreated control 0.79%) of 13.14%. The molecule further displayed a Total cell death in assay [5] (A549, untreated control 1.26%) of 28.61%. In addition, in the assay with normal lung cell WI38 (IC50 against normal WI38 divided by IC50 against A549), the “SI (Lung), selectivity index” value came to 5.93. For the same molecule, the “Phase of cell cycle arrest” value in assay [6] is “G2/M phase”. For the same molecule, in assay [6] (untreated control 1.26%), the “%Pre-G1 (sub-G1) cells” value is given as 28.61%. For the same molecule, in assay [6] (untreated control 8.09%), the “%G2/M cells, cell cycle distribution” value was 24.88%. In addition, the “%S cells, cell cycle distribution” value in assay [6] (untreated control 35.85%) amounted to 31.01%. The “%G0-G1 cells, cell cycle distribution” value in assay [6] (untreated control 56.06%) was 44.11%. For the same molecule, the “SI (Blood Cell), selectivity index” value in assay [4] (IC50 against normal PCS-800-016 divided by IC50 against K562) amounted to 6.32.

With `CN1CCC=C(C(=O)O)C1` [Compound 4, 1-Methyl-1,2,5,6-tetrahydropyridine-3-carboxylic acid], the results for the IC50 (in assay [2]; with leukemia K562 cell line) were 90.9 ± 0.59 µM and 67.3 ± 0.53 µM, respectively.

For the molecule `COC(=O)C1=CCCN(C)C1` [Arecoline hydrobromide, reference compound], the IC50 came out at 11.7 ± 0.71 µM in assay [2] and 15.3 ± 1.08 µM in the assay on leukemia K562 cell line.

(Values after PMC9609924, “In Vitro Characterization of Inhibitors for Lung A549 and Leukemia K562 Cell Lines from Fungal Transformation of Arecoline Supported by In Silico Docking to M3-mAChR and ADME Prediction” (Pharmaceuticals, 2022).)
